From ChEMBL document CHEMBL3046744, “Comparison of the declining triazole sensitivity of Gibberella zeae and increased sensitivity achieved by advances in triazole fungicide development” (Crop Prot, 2007)
The source made the active and inactive calls. No cut-off for these calls is given here.

What was measured:
Fusarium culmorum = assay: Antifungal activity against Fusarium culmorum infected durum wheat assessed as reduction in deoxynivalenol content in crop; assay type: functional; set-up: scale not given: the % may be the effect or the level left
Rattus norvegicus = assay: Toxicity in po dosed Rattus norvegicus (rat) relative to metconazole; assay type: organism-based; conditions: in vivo
Fusarium graminearum [1] = assay: Antifungal activity against Fusarium graminearum after 8 hr by microscopic analysis relative to prothioconazole; assay type: functional
Fusarium graminearum [2] = assay: Growth inhibition of Fusarium graminearum isolate 74B at 10^-4 M after 14 days; assay type: functional; conditions: 336 h, read-out: GI
Fusarium graminearum [3] = assay: Growth inhibition of Fusarium graminearum isolate 137 at 10^-4 M after 14 days; assay type: functional; conditions: isolate 137, 336 h, read-out: GI
Fusarium graminearum [4] = assay: Growth inhibition of Fusarium graminearum isolate 4527b at 10^-4 M after 14 days; assay type: functional; conditions: 336 h, read-out: GI
Fusarium graminearum [5] = assay: Growth inhibition of Fusarium graminearum isolate 123 at 10^-4 M after 14 days; assay type: functional; conditions: isolate 123, 336 h, read-out: GI
Fusarium graminearum [6] = assay: Growth inhibition of Fusarium graminearum isolate 102 at 10^-4 M after 14 days; assay type: functional; conditions: isolate 102, 336 h, read-out: GI
Fusarium graminearum [7] = assay: Growth inhibition of Fusarium graminearum isolate 106 at 10^-4 M after 14 days; assay type: functional; conditions: isolate 106, 336 h, read-out: GI
Fusarium graminearum [8] = assay: Growth inhibition of Fusarium graminearum isolate 37 at 10^-4 M after 14 days; assay type: functional; conditions: isolate 37, 336 h, read-out: GI
Fusarium graminearum [9] = assay: Antifungal activity against Fusarium graminearum isolate 137 after 8 hr by microscopic analysis; assay type: functional, organism-based; conditions: isolate 137, 8 h, pooled result: one value given for 5 cell lines, strains, targets or settings
[10] = Toxicity in po dosed Rattus norvegicus (rat); assay type: organism-based; conditions: in vivo
[11] = Aqueous solubility of the compound assessed per 100 g; assay type: physicochemical; conditions: buffer
[12] = Selectivity ratio of relative toxicity against po dosed rat to relative efficacy against Gibberella zeae; assay type: organism-based; conditions: in vivo
[13] = Aqueous solubility of the compound assessed per 100 g at pH 7; assay type: physicochemical; conditions: buffer
Fusarium graminearum [14] = assay: Growth inhibition of Fusarium graminearum at >/= 0.001 M after 14 days; assay type: functional, organism-based

Row | Compound | Activity (Fusarium culmorum) | fold change (FC) (Rattus norvegicus) | fold change (FC) (Fusarium graminearum [1]) | EC50 (Fusarium graminearum [9]) | LD50 [10] | solubility [11] | selectivity ratio [12] | also measured
1 | Clc1ccc(C2(Cn3cncn3)CC(Br)CO2)c(Cl)c1 (stereo unspecified) [BROMUCONAZOLE] | 43% | – | – | – | – | – | – | –
2 | Fc1ccc([C@]2(Cn3cncn3)O[C@H]2c2ccccc2Cl)cc1 [EPOXICONAZOLE] | – | 0.19 | 0 | 10800 µM | 3160 mg/kg | 0.7 mg | – | inhibition of growth at 100 µM (Fusarium graminearum [2]): 95.7%; inhibition of growth at 100 µM (Fusarium graminearum [3]): 99.6%; inhibition of growth at 100 µM (Fusarium graminearum [4]): 98%; inhibition of growth at 100 µM (Fusarium graminearum [5]): 95.9%; inhibition of growth at 100 µM (Fusarium graminearum [6]): 97.1%; inhibition of growth at 100 µM (Fusarium graminearum [7]): 95.4%; inhibition of growth at 100 µM (Fusarium graminearum [8]): 98.7%
3 | CC1(C)CCC(Cc2ccc(Cl)cc2)C1(O)Cn1cncn1 (stereo unspecified) [METCONAZOLE] | – | – | 0.27 | 177 µM | 660 mg/kg | – | 0.27 | solubility [13]: 3 mg
4 | CCCN(CCOc1c(Cl)cc(Cl)cc1Cl)C(=O)n1ccnc1 [PROCHLORAZ] | 43% | – | – | – | – | – | – | –
5 | OC(Cc1ccccc1Cl)(Cn1nc[nH]c1=S)C1(Cl)CC1 (stereo unspecified) [PROTHIOCONAZOLE] | – | 0.1 | – | 32 µM | 6200 mg/kg | – | 10.3 | –
6 | CC(C)(C)C(O)(CCc1ccc(Cl)cc1)Cn1cncn1 (stereo unspecified) [TEBUCONAZOLE] | 43% | 0.35 | 0.15 | 327 µM | 1700 mg/kg | 3.6 mg | 0.44 | growth inhibition (GI) (Fusarium graminearum [14]): Active
